Measurements published in patent US12234245B2, “Sulfonimidamide compounds as inhibitors of interleukin-1 activity” (Genentech, Inc., priority 2018, dated 2025).
Like-named read-outs stand apart in the source and are kept apart here.

Key:
Type in all cases: cell-based
[1] = tested on: PBMCs; assay: CTG (CellTiter-Glo) viability assay in PBMCs; conditions: LPS and nigericin stimulated
Summary of the method: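 Human donor PBMCs were primed with 100 ng/mL LPS for 3 h, pre-treated with compound (0.00017–10 µM) for 30 min in FBS-free medium, then stimulated with 10 µM nigericin for 1.5 h. Viability was read as cellular ATP by CellTiter-Glo, a cytotoxicity counter-screen to IL-1β release.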

[2] = tested on: TNFα; assay: TNFα counter-screen in LPS and nigericin stimulated PBMCs; conditions: human PBMCs
Description: Human peripheral blood mononuclear cells (PBMCs), consisting of lymphocytes (T, B and NK cells), monocytes and dendritic cells, were freshly isolated from human peripheral blood from healthy donors. Cells were obtained through an IRB approved donor program by iXCells Biotechnologies where all the donors were tested for bacterial and viral infections. Cells were purified from peripheral blood using ficoll gradient centrifugation.
(§1) Fresh or cryopreserved PMBCs were seeded in V-bottom 96-well plate at 0.5-1×10^5 cells per well and incubated overnight at 37° C. with 5% CO2 in RPMI 1640 medium with GlutaMAX supplement, 4.5 g/L D-glucose, 10% Fetal Bovine Serum (FBS), […] Sodium Pyruvate, 1% Penicillin/Streptomycin, 10 mM HEPES and 0.05 mM of β-mercaptoethanol. Freshly isolated or cryopreserved KCs cells were seeded in flat-bottom 96-well plates at 0.6-1.5×10^5 cells/well and incubated overnight at 37° C. 5% CO2 in RPMI 1640 Medium with GlutaMAX supplement, FBS, 1% Penicillin/Streptomycin and 10 mM HEPES. The following day, the cells were primed with 100 ng/mL of lipopolysaccharides (LPS; Sigma Aldrich) in FBS-free RPMI 1640 for 3 h. After the priming step, the media was removed and PBMCs were pre-incubated with serial concentrations of test compounds (0.00017-10 uM) or vehicle (DMSO) for 30 min in FBS-free media prior to addition of the NLRP3 activator. Cells were then stimulated with 10 uM Nigericin (Sigma Aldrich; InvivoGen) for 1.5 h. Plates were centrifuged at 1,500 rpm for 3 minutes to pellet cells and supernatant was transferred into new plates for subsequent experiments.
(§2) For ELISA assays cells were seeded into 96-well plates. Post study, supernatants were removed and the levels of mature IL-1β, IL18 and TNFα (Quantikine ELISA, R&D systems) were measured in cell conditioned media by ELISA according to manufacturer's instructions.
(§3) TNFα levels of LPS and nigericin stimulated cells were measured by HTRF assay (Cisbio, Bedford, MA). […] Measuring TNFalpha production also serves as a technical counter-screen to eliminate compounds that interfere with the HTRF reagents. Thus compounds that inhibit both IL-1β and TNFα levels are triaged for either being non-selective for inflammasome or interfering with the HTRF readout.

[3] = target: T1, NLRP3 inflammasome (Homo sapiens, UniProt Q96P20); assay: THP-1 ASC-GFP speck assay; parameters: host or cells: THP-1 ASC-GFP cells, PMA-differentiated, LPS-primed, nigericin-stimulated; conditions: THP-1 ASC-GFP cells, PMA differentiated, LPS primed, 10 μM nigericin; read-out: THP1 ASC Speck IC50
Summary of the method: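 PMA-differentiated (500 ng/ml, overnight) THP-1 ASC-GFP cells primed with 1 μg/mL LPS for 3 h, preincubated 30 min with compound (top 40 μM, 2-fold, 20 points), then stimulated with 10 μM nigericin for 90 min at 37 °C. After fixation and Hoechst staining, imaging gave the percentage of cells bearing a GFP ASC speck.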

[4] = target: T1, NLRP3 inflammasome; assay: NLRP3 inflammasome activation assay in PBMCs, IL-1β release (ELISA / HTRF); parameters: were freshly isolated from human peripheral blood from healthy donors; StemCells Technologies; host or cells: primary human PBMCs, LPS-primed, nigericin-stimulated; conditions: LPS primed
Summary of the method: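 Human PBMCs primed with 100 ng/mL LPS for 3 h, pre-treated with compound for 30 min (0.00017–10 µM, or from 40 µM in 2-fold 20-point series), then stimulated with 10 µM nigericin for 1.5 h at 37 °C. Released IL-1β in supernatant quantified by ELISA or by HTRF (665/620 ratio, overnight RT).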

[5] = tested on: Kupffer cells; assay: CTG (CellTiter-Glo) viability assay in Kupffer cells; conditions: human Kupffer cells
Description: (§4) Human Kupffer cells (KCs), specialized liver macrophages residing in […], were obtained by gradient isolation from liver specimens harvested post-mortem by Samsara Sciences. Cells were obtained through an IRB approved donor program by Samsara Sciences and all donors tested negative for bacterial and viral infections.
as §1
Viability of compound treated cells was measured using CellTiter-Glo® assay (Promega, Madison, Wis.) that measures the ATP content of cells which is proportional to the number of live cells within a well. This is a counter-screen to establish that the reduction of IL-1β levels in LPS and nigericin stimulated and compound treated cells is not due to cytotoxicity, but rather through the inhibition of the inflammasome pathway. Compounds inhibiting NRLP3 inflammasome activation ultimately increase the viability of LPS and nigericin stimulated cells by blocking NLRP3 mediated pyroptosis that would otherwise lead to cell lysis.

[6] = tested on: TNFα; assay: TNFα counter-screen in LPS and nigericin stimulated Kupffer cells; conditions: human Kupffer cells, read-out: Kupffer TNF α IC50
Description: as §4, §1, §2, §3

[7] = target: T1, NLRP3 inflammasome; assay: NLRP3 inflammasome activation assay in Kupffer cells, IL-1β release; parameters: were freshly isolated from human peripheral blood from healthy donors; StemCells Technologies; host or cells: primary human PBMCs, LPS-primed, nigericin-stimulated; conditions: LPS primed, nigericin
From the text: Some of the following assays were used to determine the inhibitory activity of the compounds on the NLRP3 inflammasome using a common inflammasome activation stimuli—nigericin.
as §4, §1, §2

[8] = human PBMCs, read-out: PBMC CTG IC50
[9] = 10 μM nigericin, read-out: PBMC IL-1β IC50
[10] = 10 uM nigericin, read-out: PBMC IL-1 β IC50
[11] = PBMC, read-out: PBMC TNF α IC50

T1 sequence (Q96P20 whole entry): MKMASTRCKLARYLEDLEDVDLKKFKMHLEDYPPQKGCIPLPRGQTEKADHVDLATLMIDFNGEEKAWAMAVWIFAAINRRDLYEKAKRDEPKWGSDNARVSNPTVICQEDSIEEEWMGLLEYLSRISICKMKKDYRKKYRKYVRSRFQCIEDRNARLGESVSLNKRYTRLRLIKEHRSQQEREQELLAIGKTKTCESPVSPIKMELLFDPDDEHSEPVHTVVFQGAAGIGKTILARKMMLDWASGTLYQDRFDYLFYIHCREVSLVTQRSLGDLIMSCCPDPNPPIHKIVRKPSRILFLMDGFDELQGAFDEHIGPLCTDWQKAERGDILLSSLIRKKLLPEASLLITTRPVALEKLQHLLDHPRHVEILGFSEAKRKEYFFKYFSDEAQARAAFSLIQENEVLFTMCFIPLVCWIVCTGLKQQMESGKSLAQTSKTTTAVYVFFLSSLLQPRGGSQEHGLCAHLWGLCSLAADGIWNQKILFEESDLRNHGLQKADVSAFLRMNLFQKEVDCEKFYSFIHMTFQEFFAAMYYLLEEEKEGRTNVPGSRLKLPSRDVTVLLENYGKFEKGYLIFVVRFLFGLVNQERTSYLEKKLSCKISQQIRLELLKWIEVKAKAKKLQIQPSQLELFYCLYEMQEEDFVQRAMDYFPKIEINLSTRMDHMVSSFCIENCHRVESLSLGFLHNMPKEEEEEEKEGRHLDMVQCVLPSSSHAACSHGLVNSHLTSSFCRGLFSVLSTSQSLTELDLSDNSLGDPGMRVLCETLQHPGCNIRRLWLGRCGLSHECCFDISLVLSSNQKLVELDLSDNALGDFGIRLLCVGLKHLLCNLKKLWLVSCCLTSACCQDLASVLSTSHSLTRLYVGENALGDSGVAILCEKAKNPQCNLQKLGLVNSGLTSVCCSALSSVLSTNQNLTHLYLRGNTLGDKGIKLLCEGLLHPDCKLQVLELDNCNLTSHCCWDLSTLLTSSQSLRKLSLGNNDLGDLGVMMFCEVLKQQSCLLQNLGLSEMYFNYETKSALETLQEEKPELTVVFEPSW

Compound	IC50 [1, 8] [nM]	IC50 ([2]; PBMC) [nM]	IC50 [3] [nM]	IC50 [4, 9] [nM]	IC50 [4, 10] [nM]	IC50 ([1]; Homo sapiens, PBMC) [nM]	other results
NS(=O)(=NC(=O)Nc1c2c(cc3c1CCC3)CCC2)c1cnn2c1OCCC2 (single isomer, unassigned) [Example 13]	8	> 10000	75	35			
CO[C@@H]1COc2c(S(=N)(=O)NC(=O)Nc3c4c(cc5c3CCC5)CCC4)cnn2C1 (some centres unmarked) [drawing 668]	< 100				< 100		IC50 ([2]; read-out: PBMC TNF α IC50): > 10000 nM; IC50 [5]: < 100 nM; IC50 [6]: > 10000 nM; IC50 ([7]; read-out: Kupffer IL-β B IC50): < 100 nM
CN(C)C1COc2c(S(N)(=O)=NC(=O)Nc3c4c(cc5c3CCC5)CCC4)cnn2C1 (single isomer, unassigned) [Example 33]		> 10000	1600	890		2	
COC1COc2c(S(N)(=O)=NC(=O)Nc3c4c(c(F)c5c3CCC5)CCC4)cnn2C1 (single isomer, unassigned) [Example 31]	20	> 10000	620	150			
COC1COc2c(S(N)(=O)=NC(=O)Nc3c4c(c(F)c5c3CCC5)CCC4)cnn2C1 (single isomer, unassigned) [Example 32]	5		45	13			IC50 ([2]; read-out: PBMC TNFα IC50): > 10000 nM
NS(=O)(=NC(=O)Nc1c2c(c(F)c3c1CCC3)CCC2)c1cnn2c1OCCCC2 (racemic) [Example 30, N′-((8-fluoro-1,2,3,5,6,7-hexahydro-s-indacen-4-yl)carbamoyl)-5,6,7,8-tetrahydropyrazolo[5,1-b][1,3]oxazepine-3-sulfonimidamide]		> 10000	360	67		> 10000	
NS(=O)(=NC(=O)Nc1c2c(c(F)c3c1CCC3)CCC2)c1cnn2c1OCC2 (racemic) [Example 29, N′-((8-fluoro-1,2,3,5,6,7-hexahydro-s-indacen-4-yl)carbamoyl)-2,3-dihydropyrazolo[5,1-b]oxazole-7-sulfonimidamide]		> 10000	140	94		3750	
CN[C@@H]1COc2c(S(=N)(=O)NC(=O)Nc3c4c(cc5c3CCC5)CCC4)cnn2C1 (some centres unmarked) [drawing 674]	< 100				< 100		IC50 ([2]; read-out: PBMC TNF α IC50): > 10000 nM; IC50 [5]: < 100 nM; IC50 [6]: > 10000 nM; IC50 ([7]; read-out: Kupffer IL-β B IC50): < 100 nM
NS(=O)(=NC(=O)Nc1c2c(cc3c1CCC3)CCC2)c1cnn2c1OCCC2 (centres unmarked)					< 100	100 to 1000	IC50 [5]: 100 to 1000 nM; IC50 ([7]; read-out: Kupffer IL-β B IC50): 100 to 1000 nM
NS(=O)(=NC(=O)Nc1c2c(cc3c1CCC3)CCC2)c1cnn2c1OCCC2 (racemic) [Example 1, N′-((1,2,3,5,6,7-hexahydro-s-indacen-4-yl)carbamoyl)-6,7-dihydro-5H-pyrazolo[5,1-b][1,3]oxazine-3-sulfonimidamide]				82		300	IC50 [5]: 103 nM; IC50 ([7]; read-out: Kupffer IL-1 β IC50): 123 nM
NS(=O)(=NC(=O)Nc1c2c(cc3c1CCC3)CCC2)c1cnn2c1OCCC2 (single isomer, unassigned) [Example 14]	1		1200	1910			IC50 ([2]; read-out: PBMC TNFα IC50): > 10000 nM
CNC1COc2c(S(N)(=O)=NC(=O)Nc3c(C(C)C)cc(F)cc3C(C)C)cnn2C1 (single isomer, unassigned) [Example 27]		> 10000	200	120		> 10000	
COC1COc2c(S(N)(=O)=NC(=O)Nc3c(C(C)C)cc(F)cc3C(C)C)cnn2C1 (single isomer, unassigned) [Example 23]	39	> 10000		8820			
COC1COc2c(S(N)(=O)=NC(=O)Nc3c4c(cc5c3CCC5)CCC4)cnn2C1 (single isomer, unassigned) [Example 19]	860	> 10000	640	1120			
CO[C@@H]1COc2c(S(=N)(=O)NC(=O)Nc3c4c(c(F)c5c3CCC5)CCC4)cnn2C1 (some centres unmarked) [drawing 679]	< 100				100 to 1000		IC50 ([2]; read-out: PBMC TNF α IC50): > 10000 nM
CN[C@@H]1COc2c(S(=N)(=O)NC(=O)Nc3c(C(C)C)cc(F)cc3C(C)C)cnn2C1 (some centres unmarked)					100 to 1000	100 to 1000	IC50 [2, 11]: > 10000 nM
CO[C@@H]1COc2c(S(=N)(=O)NC(=O)Nc3c(C(C)C)cc(F)cc3C(C)C)cnn2C1 (some centres unmarked) [drawing 672]	100 to 1000				100 to 1000		IC50 ([2]; read-out: PBMC TNF α IC50): > 10000 nM
CO[C@@H]1COc2c(S(=N)(=O)NC(=O)Nc3c4c(c(F)c5c3CCC5)CCC4)cnn2C1 (some centres unmarked) [drawing 666]					< 100	< 100	IC50 [2, 11]: > 10000 nM
CN(C)[C@@H]1COc2c(S(=N)(=O)NC(=O)Nc3c4c(cc5c3CCC5)CCC4)cnn2C1 (some centres unmarked) [drawing 682]	< 100				< 100		IC50 ([2]; read-out: PBMC TNF α IC50): > 10000 nM
